From patent publication US20240101561A1, “NOVEL TETRAZOLES” (Boehringer Ingelheim International GmbH, priority 2019, published 2024)

Experiments:
[1] = Assay C: Hepatocyte clearance; type: in vitro ADME, human; conditions: cryopreserved hepatocyte suspension, incubated six hours
Protocol: Assay C: Hepatocyte Clearance
The metabolic degradation of the test compound is assayed in a hepatocyte suspension. Hepatocytes (cryopreserved) are incubated in. Dulbecco's modified eagle medium (supplemented with 3.5 μg glucagon/500 mL, 2.5 mg insulin/500 mL and 3.75 mg/500 mL hydrocortison) containing 5% or 50% species serum.
Following a 30 min preincubation in an incubator (37° C., 10% CO2) 5 μl of test compound solution (80 μM; from 2 mM in DMSO stock solution diluted 1:25 with medium) are added into 395 μl hepatocyte suspension (cell density in the range 0.25-5 Mio cells/mL depending on the species, typically 1 Mio cells/mL; final concentration of test compound final DMSO concentration 0.05%).
The cells are incubated for six hours (incubator, orbital shaker) and samples (25 μl) are taken at 0, 0.5, 1, 2, 4 and 6 hours. Samples are transferred into acetonitrile and pelleted by centrifugation (5 min). The supernatant is transferred to a new 96-deepwell plate, evaporated under nitrogen and resuspended.
Decline of Parent Compound is Analyzed by HPLC-MS/MS
CLint is calculated as follows CL_[…]=Dose/AUC=(C0/CD)/(AUD+clast/k)×1000/60. C0: initial concentration in the incubation [μM], CD: cell density of vital cells [10e6cells/mL], AUD: area under the data [μM×h], clast: concentration of last data point [μM], k: slope of the regression line for parent decline [h−1].
The calculated in vitro hepatic intrinsic clearance can be scaled up to the intrinsic in vivo hepatic Clearance and used to predict hepatic in vivo blood clearance (CL) by the use of a liver model (well stirred model).
CL_[…]_INVIVO [ml/min/kg]=(CL_[…] [μL/min/10e6cells]×hepatocellularity[10e6cells/g liver]×liver factor [g/kg bodyweight])/1000
CL [ml/min/kg]=CL_[…]_INVIVO [ml/min/kg]×hepatic blood flow [ml/min/kg]/(CL_[…]_INVIVO [ml/min/kg]+hepatic blood flow [ml/min/kg])

[2] = Assay B: Microsomal clearance; type: in vitro ADME, human; conditions: pooled liver microsomes, 1 μM test compound, 37° C., NADPH
Protocol: Assay B: Microsomal Clearance:
The metabolic degradation of the test compound is assayed at 37° C. with pooled liver microsomes. The final incubation volume of 100 μl per time point contains TRIS buffer pH 7.6 at RT (0.1 M), magnesium chloride (5 mM), microsomal protein (1 mg/ml) and the test compound at a final concentration of 1 μM.
Following a short preincubation period at 37° C., the reactions are initiated by addition of beta-nicotinamide adenine dinucleotide phosphate, reduced form (NADPH, 1 mM) and terminated by transferring an aliquot into solvent after different time points (0, 5, 15, 30, 60 min). Additionally, the NADPH-independent degradation is monitored in incubations without NADPH, terminated at the last time point. The [%] remaining test compound after NADPH independent incubation is reflected by the parameter c(control) (metabolic stability). The quenched incubations are pelleted by centrifugation (10000 g, 5 min).
An aliquot of the supernatant is assayed by LC-MS/MS for the amount of parent compound. The half-life (t½ INVITRO) is determined by the slope of the semilogarithmic plot of the concentration-time profile.
The intrinsic clearance (CL_[…]) is calculated by considering the amount of protein in the incubation:
CL_[…] [μl/min/mg protein]=(Ln 2/(half-life [min]*protein content [mg/ml]))*1000
CL_[…]_INVIVO [ml/min/kg]=(CL_[…] [μL/min/mg protein]×MPPGL [mg protein/g liver]×liver factor [g/kg bodyweight])/1000

human TRPA1 ion channel = human TRPA1 ion channel (Homo sapiens (Human), UniProt O75762); assay: Assay A: TRPA1 cell assay (FLIPR, AITC-induced intracellular calcium); type: cell-based; conditions: HEK293 cells over-expressing human TRPA1; AITC 10 μM agonist; FLIPRtetra; read-out: hTRPA1 IC50
Chain of human TRPA1 ion channel (O75762 whole entry): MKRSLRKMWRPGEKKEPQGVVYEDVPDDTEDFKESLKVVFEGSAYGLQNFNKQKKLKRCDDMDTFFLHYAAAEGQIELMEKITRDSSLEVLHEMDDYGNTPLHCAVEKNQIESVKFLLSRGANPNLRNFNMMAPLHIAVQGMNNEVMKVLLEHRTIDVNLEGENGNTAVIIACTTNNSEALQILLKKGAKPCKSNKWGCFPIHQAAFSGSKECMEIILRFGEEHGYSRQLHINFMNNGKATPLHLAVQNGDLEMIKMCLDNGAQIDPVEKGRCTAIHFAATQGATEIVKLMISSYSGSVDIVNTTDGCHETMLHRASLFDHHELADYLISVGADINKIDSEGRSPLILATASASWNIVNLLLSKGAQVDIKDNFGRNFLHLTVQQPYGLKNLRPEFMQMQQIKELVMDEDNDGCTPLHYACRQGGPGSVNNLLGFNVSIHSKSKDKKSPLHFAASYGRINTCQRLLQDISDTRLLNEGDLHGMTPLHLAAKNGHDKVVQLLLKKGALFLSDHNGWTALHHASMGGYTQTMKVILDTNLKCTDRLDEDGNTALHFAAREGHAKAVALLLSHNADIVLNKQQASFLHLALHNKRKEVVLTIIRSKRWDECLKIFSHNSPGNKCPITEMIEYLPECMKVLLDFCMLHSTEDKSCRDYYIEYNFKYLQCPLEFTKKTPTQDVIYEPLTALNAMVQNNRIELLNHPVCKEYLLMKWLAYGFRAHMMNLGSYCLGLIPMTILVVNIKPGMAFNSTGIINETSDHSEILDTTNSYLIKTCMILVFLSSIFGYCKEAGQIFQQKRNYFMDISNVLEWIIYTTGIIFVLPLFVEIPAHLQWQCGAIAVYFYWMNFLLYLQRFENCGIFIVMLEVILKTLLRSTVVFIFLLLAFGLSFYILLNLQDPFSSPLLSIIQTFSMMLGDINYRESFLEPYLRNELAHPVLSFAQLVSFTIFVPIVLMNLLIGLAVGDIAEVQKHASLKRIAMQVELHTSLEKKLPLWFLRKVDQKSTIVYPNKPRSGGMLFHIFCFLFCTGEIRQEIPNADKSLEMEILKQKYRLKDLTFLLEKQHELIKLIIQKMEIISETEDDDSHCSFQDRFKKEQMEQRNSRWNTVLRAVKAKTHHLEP
Protocol: A human HEK293 cell line over-expressing the human TRPA1 ion channel (Perkin Elmer, Product No. AX-004-PCL) was used as a test system for compound efficacy and potency.
Compound activity was determined by measuring the effect of compounds on intracellular calcium concentration induced by AITC (Allylisothiocyanat) agonism in a FLIPRtetra system (Molecular Devices).
The cells were obtained as frozen cells in cryo-vials and stored until use at −150° C. Cells were grown in culture medium (MEM/EBSS medium with 10% FCS and 0.4 mg/ML Geneticin). […] For sub-culturing cells were detached from flasks by Versene. At the day before the assay, cells were detached, washed twice with medium (MEM/EBSS medium with 10% FCS) and 20000 cells in 20 μl/well were seeded to Poly D-Lysin biocoated 384-well plates (black, clear bottom, Cat.356697) from Corning. Plates were incubated for 24 hours at 37° C./5% CO2 before use in the assay.
The test compounds were dissolved in 100% DMSO at a concentration of 10 mM and in a first step diluted in DMSO to a concentration of 5 mM, followed by serial dilution steps in 100% DMSO. Dilution factor and number of dilution steps may vary according to needs. Typically 8 different concentrations by 1:5 dilutions were prepared, further intermediate dilutions (1:20) of the substances were carried out with HBSS/HEPES buffer (1×HEPES,Cat.14065 from Gibco, 20 mM HEPES, Cat. 83264 from SIGMA, 0.1% BSA Cat.11926 from Invitrogen, pH 7,4
At the assay day cells were washed 3× with assay puffer, 20 μL buffer remained in the wells after washing. 10 μL Ca6 kit (Cat.R8191 MolecularDevices) loading buffer in HBSS/HEPES was added to the cells and the plates were incubated with lid for 120 minutes at 37°/5% CO2. 10 μL of compound or controls in HBSS/HEPES buffer/5% DMSO from the intermediate dilution plate were carefully added to the wells. […] Finally 10 μL of the agonist AITC 50 μM dissolved in HBSS/HEPES buffer/0,05% DMSO (final concentration 10 μM) was added to the wells followed by an additional read on the FLIPRtetra device for 10 minutes. The area under the signal curve (AUC) after AITC addition was used for IC50/% inhibition calculations
Data Evaluation and Calculation:
Each assay microtiter plate contained wells with vehicle (1% DMSO) controls instead of compound as controls for AITC induced luminescence (100% CTL; high controls) and wells with vehicle controls without AITC as controls for non-specific changes in luminescence (0% CTL; low controls).
The analysis of the data was performed by the calculation of the area under signal curve of the individual wells. Based on this values the % value for the measurement of each substance concentration was calculated (AUC(sample)−AUC(low))*100/(AUC(high)−AUC(low)) using MegaLab software (in house development). The IC50 values were calculated from the % control values using MegaLab software. Calculation: [y=(a−d)/(1+(x/c){circle around ( )}b)+d], a=low value, d=high value; x=conc M; c=IC50 M; b=hill; y=ctrl

[3] = Assay D: Metabolism in human hepatocytes in vitro; type: in vitro ADME; conditions: primary human hepatocytes, 10 μM test compound, up to six hours
Protocol: Assay D: Metabolism in Human Hepatocytes In Vitro
The metabolic pathway of a test compound is investigated using primary human hepatocytes in suspension.
Following a 30 min preincubation in a cell culture incubator (37° C., 10% CO2), test compound solution is spiked into the hepatocyte suspension to obtain a final cell density of 1.0*10^6 to 4.0*10^6 cells/ml (depending on the metabolic turnover rate of the compound observed with primary human hepatocytes), a final test compound concentration of 10 μM, and a final DMSO concentration of 0.05%.
The cells are incubated for six hours in a cell culture incubator on a horizontal shaker, and samples are removed from the incubation after 0, 0.5, 1, 2, 4 or 6 hours, depending on the metabolic turnover rate. Samples are quenched with acetonitrile and pelleted by centrifugation. The supernatant is transferred to a 96-deepwell plate, evaporated under nitrogen and resuspended prior to bioanalysis by liquid chromatography-high resolution mass spectrometry for identification of putative metabolites.

SMILES | human Hepatocytes [% Qh] [1] [% Qh] | human LM [% Qh] [2] [% Qh] | IC50 (human TRPA1 ion channel) [nM] | Major metabolite observed: mechanism (Metabolite M1) [3]
Cn1nnc2ncn(Cc3nnn(C[C@H](O)c4ccc(Cl)cc4)n3)c(=O)c21 [Example 1] | <4 | <23 | 35 | 
Cn1cnc2nc(N)n(Cc3nnn(C[C@H](O)c4ccc(Cl)cc4)n3)c(=O)c21 [Example 2] |  |  | 288 | 
Cc1ccn2ncn(Cc3nnn(C[C@H](O)c4ccc(Cl)cc4)n3)c(=O)c12 [Example 3] |  | >89 | 75 | 
O=c1c2scnc2ncn1Cc1nnn(C[C@H](O)c2ccc(Cl)cc2)n1 [Example 4] |  | <23 | 197 | 
Cc1nn(C)c2ncn(Cc3nnn(C[C@H](O)c4ccc(Cl)cc4)n3)c(=O)c12 [Example 5] | 31 | <23 | 27 | N-Demethylation
Cn1cnc2cnn(Cc3nnn(C[C@H](O)c4ccc(Cl)cc4)n3)c(=O)c21 [Example 7] |  | <23 | 275 | 
Cc1ncn2ncn(Cc3nnn(C[C@H](O)c4ccc(Cl)cc4)n3)c(=O)c12 [Example 8] | 22 | <23 | 27 | 
Cn1cnc2ncn(Cc3nnn(C[C@H](O)c4ccc(Cl)cc4)n3)c(=O)c21 [Example 9, 1-({2-[(2R)-2-(4-chlorophenyl)-2-hydroxyethyl]-2H-1,2,3,4-tetrazol-5-yl}methyl)-7-methyl-6,7-dihydro-1H-purin-6-one] | <4 | <23 | 72 | 
